Test system: chorioallantoic membrane of the preincubated Leghorn hen's egg
Experiment: HET-CAM (Hen's Egg Test ChorioAllantoic Membrane) test of ocular irritation potential
Conditions: for Classification of the concentrate tested: HET-CAM, active material concentration of 1%, pH 7, class by scale of the index I
Excerpt: The experimental protocol of this test is adapted from the Luepke publication (The Hen's Egg Test: “An Alternative Toxicity Test”, Brit. J. Dermato., 1986, 115. Suppl. 31, 133-135, Luepke N. P. & Kemper F. H. The HET-CAM Test: “An Alternative to the Draize Test”, Food Chem. Toxicol., 1986, 24, No. 6/7, 495-496), from the INVITTOX No. 47 protocol (1992, INVITTOX data bank, 34 Stoney Street, Nottingham, NG1 1NB, UK) and from Annex IV to the order published in the Official Journal of the French Republic of 26 Dec. 1996 relating to the official methods for the analysis of beauty products (NOR: FCEC9600217A).
This tests consists in assessing the irritation potential of a substance by reading the modifications observed after application of a solution of this substance to the richly vascularized chorioallantoic membrane of the preincubated Leghorn hen's egg.
The products were tested at an active material concentration of 1%. The solutions are prepared by diluting in deionized water at most 24 hours in advance.
The pH of the test solutions is adjusted to 7 with triethanolamine or lactic acid, if necessary.
On reception, the fertilized eggs are preincubated in an incubator for 10 days at 37.8° C.±0.5° C. with a degree of humidity in the incubator of 50% to 60%.
The shell of the eggs on which the tests are carried out is cut out around the air pocket and the chorioallantoic membrane is uncovered by carefully removing the shell membrane using tweezers.
0.3 cm^3 of the solution to be tested is deposited at the surface of the membrane. […]
By definition, if one of the phenomena has not appeared during these five minutes (300 seconds), it is recorded ti=301 seconds.
Each solution is tested on 4 to 6 eggs according to the repeatability of the reactions observed. The Het-Cam index I, representative of the test, is calculated for each egg tested in the following way: I=5×(301−t1)/300+7×(301−t2)/300+9×(301−t3)/300
The mean of the individual indices is subsequently calculated, along with the statistical uncertainty i: i=t·S/√n for a risk of 5% […]

Substance: Sodium lauryl ether (2.2 EO) sulfate [compound 1]
- Classification of the concentrate tested: Irritating (9 ≦ . . . I < 12)
- Classification of the concentrate tested (listed as comparative example 1): irritating
- Het-Cam index (active material concentration of 1% in deionized water, pH adjusted to 7, 0.3 cm^3 on membrane, rinsed after 20 seconds, read over 5 minutes, mean of 4 to 6 eggs): 10.7

From patent publication US7902135B2, “Method of improving the ocular tolerance of foaming and/or detergent compositions for skin use” (Societe d'Exploitation de Produits pour les Industries …, priority 2006, dated 2011)
